Results as given in US8334382B2, “Substituted biaryl piperazinyl-pyridine analogues” (Neurogen Corporation, priority 2004, dated 2012).

Target: T1, human capsaicin receptor (Homo sapiens, UniProt Q8NER1)
T1 construct: expressed in transfected cells; host or cells: HEK293, stably transfected with pBK-CMV construct
Experiment: Calcium mobilization assay, determination of antagonist activity
Type: cell-based
Details: capsaicin at EC50; cells expressing human capsaicin receptor; Example 6
Summary of the method: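 HEK293 cells stably expressing full-length human TRPV1, loaded with Fluo-3 AM in KRH buffer pH 7.4, preincubated with compound (final 1-5 µM) in the dark at room temperature for 0.5-6 h, then stimulated with capsaicin at its EC50. FLIPR fluorescence gave IC50 as concentration halving the capsaicin response.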

T1 sequence (Q8NER1 whole entry): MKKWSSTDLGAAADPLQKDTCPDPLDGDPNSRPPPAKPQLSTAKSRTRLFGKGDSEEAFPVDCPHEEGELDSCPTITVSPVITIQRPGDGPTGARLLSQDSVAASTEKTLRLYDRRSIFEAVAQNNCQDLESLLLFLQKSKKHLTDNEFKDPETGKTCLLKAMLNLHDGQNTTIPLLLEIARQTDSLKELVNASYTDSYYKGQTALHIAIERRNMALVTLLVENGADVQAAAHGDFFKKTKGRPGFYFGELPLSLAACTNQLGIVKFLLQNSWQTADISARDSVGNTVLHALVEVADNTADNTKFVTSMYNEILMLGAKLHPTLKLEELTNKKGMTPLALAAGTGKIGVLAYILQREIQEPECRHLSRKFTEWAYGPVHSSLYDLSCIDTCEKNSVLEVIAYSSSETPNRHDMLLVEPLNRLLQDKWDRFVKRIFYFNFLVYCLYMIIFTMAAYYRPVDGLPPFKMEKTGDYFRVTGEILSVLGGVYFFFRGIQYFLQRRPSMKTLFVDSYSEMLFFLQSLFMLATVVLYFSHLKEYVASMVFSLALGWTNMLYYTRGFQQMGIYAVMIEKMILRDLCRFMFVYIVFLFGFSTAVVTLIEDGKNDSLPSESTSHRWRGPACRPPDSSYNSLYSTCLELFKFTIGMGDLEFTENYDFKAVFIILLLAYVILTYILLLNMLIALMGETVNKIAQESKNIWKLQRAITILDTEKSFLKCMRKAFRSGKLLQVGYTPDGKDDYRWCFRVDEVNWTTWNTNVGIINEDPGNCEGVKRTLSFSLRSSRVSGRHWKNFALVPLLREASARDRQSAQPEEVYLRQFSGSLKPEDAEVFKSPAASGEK

| SMILES | IC50 [nM] |
| --- | --- |
| C[C@@H]1CN(c2ncc(C(=O)O)cc2Cl)CCN1c1cc(-c2ccc(F)cc2)nc(N2CCC[C@H]2C)n1 [Example 94, 5-Chloro-6-{4-[6-(4-fluoro-phenyl)-2-(2-(R)-methyl-pyrrolidin-1-yl) - pyrimidin-4-yl]-3-(R)-methyl-piperazin-1-yl} - nicotinic acid] | ≤ 1000 |
| CC(=O)N1CCN(C(=O)c2cnc(N3CCN(c4cc(-c5ccc(F)cc5)nc(N5CCCC5C)n4)CC3)c(C)c2)CC1 (centres unmarked) [Example 134, 4-(4-{5-[(4-acetylpiperazin-1-yl)carbonyl]-3-methylpyridin-2-yl}piperazin-1-yl)-6-(4-fluorophenyl)-2-(2-methylpyrrolidin-1-yl)pyrimidine] | ≤ 1000 |
| Cc1cc(C(=N)N)cnc1N1CCN(c2cc(-c3ccc(F)cc3)nc(N3CCCC3C)n2)CC1 (centres unmarked) [Example 91, 6-{4-[6-(4-fluorophenyl)-2-(2-methylpyrrolidin-1-yl)pyrimidin-4-yl]piperazin-1-yl}-5-methylpyridine-3-carboximidamide] | ≤ 1000 |
| Cc1cc(C(=O)O)cnc1N1CCN(c2cc(-c3ccc(F)c(Cl)c3)nc(N3CCC[C@H]3C)n2)[C@H](C)C1 [Example 154, 6-{4-[6-(3-Chloro-4-fluoro-phenyl)-2-(2-(R)-methyl-pyrrolidin-1-yl)-pyrimidin-4-yl]-3-(R)-methyl-piperazin-1-yl}-5-methyl-nicotinic acid] | ≤ 1000 |
| CC(C)c1cc(-c2cc(N3CCN(c4ncc(C(=O)O)cc4Cl)C[C@H]3C)nc(N3CCCC3C)n2)ccn1 (stereo partly drawn) [Example 53, 5-Chloro-6-{4-[6-(2-isopropyl-pyridin-4-yl)-2-(2-methyl-pyrrolidin-1-yl)-pyrimidin-4-yl]-3-(R)-methyl-piperazin-1-yl}-nicotinic acid] | ≤ 1000 |
| C[C@@H]1CN(c2ncc(C(=O)O)cc2Cl)CCN1c1cc(-c2ccc(F)cc2)nc(N2CCC[C@H]2CO)n1 [Example 156, 5-Chloro-6-{4-[6-(4-fluoro-phenyl)-2-(2-(S)-hydroxymethyl-pyrrolidin-1-yl)-pyrimidin-4-yl]-3-(R)-methyl-piperazin-1-yl}-nicotinic acid] | ≤ 1000 |
| Cc1cc(C(=O)N2CCC(N(C)C)C2)cnc1N1CCN(c2cc(-c3ccc(F)cc3)nc(N3CCCC3C)n2)CC1 (stereo not drawn) [Example 139, l-[(6-{4-[6-(4-fluorophenyl)-2-(2-methylpyrrolidin-1-yl)pyrimidin-4-yl]piperazin-1-yl}-5-methylpyridin-3-yl)carbonyl]-N,N-dimethylpyrrolidin-3 amine] | ≤ 1000 |
| C[C@@H]1CN(c2ncc(C(N)=O)cc2Cl)CCN1c1cc(-c2ccccc2)nc(N2CCC[C@H]2CO)n1 [Example 165, 5-Chloro-6-{4-[2-(2-(S)-hydroxymethyl-pyrrolidin-1-yl)-6-phenyl-pyrimidin-4-yl]-3-(R)-methyl-piperazin-1-yl}-nicotinamide] | ≤ 1000 |
| C[C@@H]1CN(c2ncc(C(=O)NCCO)cc2Cl)CCN1c1cc(-c2ccccc2)nc(N2CCC[C@H]2CO)n1 [Example 166, 5-Chloro-N-(2-hydroxy-ethyl)-6-{4-[2-(2-(S)-hydroxymethyl-pyrrolidin-1-yl)-6-phenyl-pyrimidin-4-yl]-3-(R)-methyl-piperazin-1-yl}-nicotinamide] | ≤ 1000 |
| CC1CCCN1c1nc(-c2ccc(F)c(Cl)c2)cc(N2CCN(c3ncc(CO)cc3Cl)C[C@H]2C)n1 (stereo partly drawn) [Example 13, (5-Chloro-6-{4-[6-(3-chloro-4-fluoro-phenyl)-2-(2-methyl-pyrrolidin-1-yl)-pyrimidin-4-yl]-3-(R)-methyl-piperazin-1-yl}-pyridin-3-yl)-methanol] | ≤ 1000 |
| Cc1cc(C(=O)N2CCC(F)(F)CC2)cnc1N1CCN(c2cc(-c3ccc(F)cc3)nc(N3CCCC3C)n2)CC1 (centres unmarked) [Example 142, 4-(4-{5-[(4,4-difluoropiperidin-1-yl)carbonyl]-3-methylpyridin-2-yl}piperazin-1-yl)-6-(4-fluorophenyl)-2-(2-methylpyrrolidin-1-yl)pyrimidine] | ≤ 1000 |
| CNCc1cnc(N2CCN(c3cc(-c4ccc(F)c(Cl)c4)nc(N4CCCC4C)n3)CC2)c(Cl)c1 (centres unmarked) [Example 11, (5-Chloro-6-{4-[6-(3-chloro-4-fluoro-phenyl)-2-(2-methyl-pyrrolidin-1-yl)-pyrimidin-4-yl]-piperazin-1-yl}-pyridin-3-ylmethyl)-methyl-amine] | ≤ 1000 |
| CC1CCCN1c1nc(-c2ccc(F)cc2)cc(N2CCN(c3ncc(C(N)=O)cc3Cl)CC2)n1 (centres unmarked) [Example 40, 5-Chloro-6-{4-[6-(4-fluoro-phenyl)-2-(2-methyl-pyrrolidin-1-yl)-pyrimidin-4-yl]-piperazin-1-yl}-nicotinamide] | ≤ 1000 |
| CCOC(=O)c1cnc(N2CCN(c3cc(-c4ccccc4)nc(N4CCCC4C)n3)[C@H](C)C2)c(Cl)c1 (stereo partly drawn) [Example 41, 5-Chloro-6-{3-(R)-methyl-4-[2-(2-methyl-pyrrolidin-1-yl)-6-phenyl-pyrimidin-4-yl]-piperazin-1-yl}-nicotinic acid ethyl ester] | ≤ 1000 |
| CCOC(=O)c1cnc(N2CCN(c3cc(-c4ccc(F)c(Cl)c4)nc(N4CCCC4C)n3)[C@H](C)C2)c(Cl)c1 (stereo partly drawn) [Example 18, 5-Chloro-6-{4-[6-(3-chloro-4-fluoro-phenyl)-2-(2-methyl-pyrrolidin-l-yl)-pyrimidin-4-yl]-3-(R)-methyl-piperazin-1-yl}-nicotinic acid ethyl ester] | ≤ 1000 |
| Cc1cc(C(=O)O)cnc1N1CCN(c2cc(-c3ccncc3)nc(N3CCCC3C)n2)CC1 (centres unmarked) [Example 77, 5-Methyl-6-{4-[2-(2-methyl-pyrrolidin-1-yl)-6-pyridin-4-yl-pyrimidin-4-yl]-piperazin-1-yl}-nicotinic acid] | ≤ 1000 |
| Cc1cc(C(N)=O)cnc1N1CCN(c2cc(-c3ccc(F)cc3)nc(N(C)C)n2)[C@H](C)C1 [Example 83, 6-{4-[2-Dimethylamino-6-(4-fluoro-phenyl)-pyrimidin-4-yl]-3-(R)-mcthyl-piperazin-1-yl}-5-methyl-nicotinamide] | ≤ 1000 |
| Cc1cc(C(=O)N2CCSCC2)cnc1N1CCN(c2cc(-c3ccc(F)cc3)nc(N3CCCC3C)n2)CC1 (centres unmarked) [Example 127, 4-[(6-{4-[6-(4-fluorophenyl)-2-(2-methylpyrrolidin-1-yl)pyrimidin-4-yl]piperazin-1-yl}-5-methylpyridin-3-yl)carbonyl] thiomorpholine] | ≤ 1000 |
| Cc1cc(C(=O)O)cnc1N1CCN(c2cc(-c3ccc(F)cc3)nc(N3CCC[C@H]3CO)n2)[C@H](C)C1 [Example 151, 6-{4-[6-(4-Fluoro-phenyl)-2-(2-(S)-hydroxymethyl-pyrrolidin-l-yl)-pyrimidin-4-yl]-3-(R)-methyl-piperazin-1-yl}-5-methyl-nicotinic acid] | ≤ 1000 |
| Cc1cc([N+](=O)[O-])cnc1N1CCN(c2cc(-c3ccc(F)c(Cl)c3)nc(N3CCCC3C)n2)CC1 (centres unmarked) [Example 5, 4-(3-Chloro-4-fluoro-phenyl)-6-[4-(3-methyl-5-nitro-pyridin-2-yl)-piperazin-1-yl]-2-(2-methyl-pyrrolidin-1-yl)-pyrimidine] | ≤ 1000 |
| CC1CCCN1c1nc(-c2ccc(F)c(Cl)c2)cc(N2CCN(c3nccc(C(=O)O)c3Cl)CC2)n1 (centres unmarked) [Example 7, 3-Chloro-2-{4-[6-(3-chloro-4-fluoro-phenyl)-2-(2-methyl-pyrrolidin-1-yl)-pyrimidin-4-yl]-piperazin-1-yl}-isonicotinic acid] | ≤ 1000 |
| Cc1cc(C(=O)O)cnc1N1CCN(c2cc(-c3ccc(F)cc3)nc(N(C)C)n2)[C@H](C)C1 [Example 81, 6-{4-[2-Dimethylamino-6-(4-fluoro-phenyl) - pyrimidin-4-yl]-3-(R)-methyl-piperazin-1-yl}-5-methyl-nicotinic acid] | ≤ 1000 |
| Cc1cc(C(=O)O)cnc1N1CCN(c2cc(-c3ccc(F)c(Cl)c3)nc(N3CCC[C@H]3C)c2)[C@H](C)C1 [Example 178, 6-{4-[2-(3-Chloro-4-fluoro-phenyl)-6-(2-(R)-methyl-pyrrolidin-1-yl)-pyridin-4-yl]-3-(R)-methyl-piperazin-1-yl}-5-methyl-nicotinic acid] | ≤ 1000 |
| Cc1cc(C(N)=O)cnc1N1CCN(c2cc(-c3ccccc3)nc(N(C)C)n2)[C@H](C)C1 [Example 84, 6-[4-(2-Dimethylamino-6-phenyl-pyrimidin-4-yl)-3-(R)-methyl-piperazin-1-yl]-5-methyl-nicotinamide] | ≤ 1000 |
| Cc1cc(OCCO)cnc1N1CCN(c2cc(-c3ccc(F)cc3)nc(N3CCC[C@H]3C)n2)[C@H](C)C1 (relative stereo) [Example 192, rel-2-({6-[(3R)-4-{6-(4-fluorophenyl)-2-[(2R)-2-methylpyrrolidin-1-yl]pyrimidin-4-yl}-3-methylpiperazin-1-yl]-5-methylpyridin-3-yl}oxy)ethanol] | ≤ 1000 |
| Cc1cc(OCCO)cnc1N1CCN(c2cc(-c3ccc(F)c(Cl)c3)nc(N3CCC[C@H]3C)n2)[C@H](C)C1 [Example 182, 2-{[6-((3R)-4-{6-(3-chloro-4-fluorophenyl)-2-[(2R)-2-methyl-1-pyrrolidinyl]-4-pyrimidinyl}-3-methyl-1-piperazinyl)-5-methyl-3-pyridinyl]oxy}ethanol] | ≤ 1000 |
| Cc1cc(CO)cnc1N1CCN(c2cc(-c3ccnc(C(C)C)c3)nc(N3CCCC3C)n2)CC1 (centres unmarked) [Example 74, (6-{4-[6-(2-Isopropyl-pyridin-4-yl)-2-(2-methyl-pyrrolidin-1-yl)-pyrimidin-4-yl]-piperazin-1-yl}-5-methyl-pyridin-3-yl)-methanol] | ≤ 1000 |
| Cc1cc(C(=O)O)cnc1N1CCN(c2cc(-c3ccnc(C(C)C)c3)nc(N3CCCC3C)n2)[C@H](C)C1 (stereo partly drawn) [Example 80, 6-{4-[6-(2-Isopropyl-pyridin-4-yl)-2-(2-methyl-pyrrolidin-1-yl)-pyrimidin-4-yl]-3-(R)-methyl-piperazin-1-yl}-5-methyl-nicotinic acid] | ≤ 1000 |
| Cc1cc(C(N)=O)cnc1N1CCN(c2cc(-c3ccnc(C(C)C)c3)nc(N3CCCC3C)n2)CC1 (centres unmarked) [Example 90, 6-{4-[6-(2-Isopropyl-pyridin-4-yl)-2-(2-methyl-pyrrolidin-1-yl)-pyrimidin-4-yl]-piperazin-1-yl}-5-methyl-nicotinamide] | ≤ 1000 |
